≈ marks a conversion by molar mass, not a printed value.
How the values were obtained:
FAP [1] = biological target: FAP (Mus musculus (Mouse), UniProt P97321); assay: FAP plasma inhibition assay, mouse plasma; type: biochemical; details: mouse plasma diluted 1:67, Ala-Pro-AMC 75 μM
Procedure, shortened: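 K2EDTA plasma served as enzyme source, human diluted 1:40 and mouse 1:67, in PBS with 0.1% BSA. Compounds ran as a 10-point 3-fold series from 500 nM final, in duplicate, 40 min at rt in the dark, with fluorescence read against a pre-substrate blank. IC50 came from % inhibition versus log concentration.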

[2] = biological target: human dipeptidylpeptidase 7 (hDPP7) (Homo sapiens (Human), UniProt Q9UHL4); assay: hDPP7 inhibition assay; type: biochemical; details: hDPP7 15 nM, Ala-Pro-amino-methylcoumarin 5 μM, n = 1
Method: Compounds were tested in a biochemical inhibition assay using human dipeptidylpeptidase 7 (hDPP7) enzyme at 15 nM FAC (BPS Bioscience, #80070) and the substrate Ala-Pro-amino-methylcoumarin (BPS Bioscience, #80305) at 5 μM FAC. The enzymatic reactions were conducted in duplicate at rt for 30 min in 50 μL DPP assay buffer (BPS Bioscience, #80300). Compound solutions (in DMSO) at 10 CR, 3 fold dilution series were prepared in assay buffer ten-fold higher than the final concentration, and 5 μL of the dilution was added to a 50 μL reaction so that the highest compound concentration was 100 μM FAC and the concentration of DMSO was 1% in all wells. The plates were read on a Tecan Infinite M1000 microplate reader with excitation 340 nm and emission 460 nm. Data were analyzed in Graph Pad Prism. IC50 values were determined by plotting % inhibition versus log compound concentration and using a one site dose response model. Raw data signals were normalized using 1% DMSO as 0% control and no enzyme as 100% inhibitor control.

[3] = biological target: Fibroblast Activation Protein alpha (FAP) (Mus musculus (Mouse), UniProt P97321); assay: in vivo
Method: The effect of test compound on FAP enzyme activity in mouse plasma was evaluated in an enzymatic assay using the Fibroblast Activation Protein alpha (FAP) specific fluorogenic substrate dipeptide-Coumarin, Ala-Pro-AMC, (ARI-3144).
Male C57Bl/6 mice (Charles River, Germany), 8 weeks of age, were single housed in a temperature-controlled room with a 12-hour light/dark cycle (06:00-18:00 light). The mice had ad libitum access to water and rodent chow diet (R70, Lactamin, Kimstad, Sweden), and were acclimated for 5 days upon arrival. After acclimation, all mice received a single oral dose of test compound (3 or 10 mg/kg). Blood samples for whole blood compound exposure measurements were taken at 0.25, 0.5, 1, 2, 4, 8 and 24 h post oral dosing. Samples were collected in EDTA capillary tubes (20 μL, K2E, REF 19.447) and were transferred to a 96-deep well plate (NUNC, Thermo Discher Scientific) and stored at −20° C. until further analyses were performed. Blood samples for plasma FAP enzyme activity measurements were taken at 0, 0.25, 0.5, 1, 2, 8 and 24 h post dosing. 25 μL of whole blood was collected in EDTA Microvette® CB 300 (K2E, REF 16.444.100) tubes, and were centrifuged at 4,000×g for 5 min. 10 μL of plasma was then transferred to PCR tubes and stored at −20° C. until further analysis was performed. All blood samples were taken by vena saphena puncture.
Recombinant human FAP (PB-17-1837, construct PL-17-0278, cd33-FAP (27-757)-6His, Mw85926 Da) was used as a standard for this assay. […] The plates were read on a Beckman Paradigm reader with excitation 360 nm and emission 465 nm. Fluorescence measurements were performed with kinetic read every 5 minutes for 60 min at room temperature. Data were analyzed in Excel (IDBS XLfit Add-In) using a Linear Regression (y=k*x+m) model to prepare a human recombinant FAP standard curve.
On the day of the assay, plasma was diluted (1:2) to 20 μL volume in buffer (PBS, 0.1% BSA) and 7.5 μL was transferred to the assay plate (384-well black, fluotrack PS, Greiner 781076). Ala-Pro-AMC (stock solution in 10 mM DMSO) was diluted in buffer (PBS, 0.1% BSA) to 150 μM concentration (180 μL stock solution to 12 mL buffer) and 7.5 μL added to the assay plate followed by a pipetting mix. The plates were read on a Beckman Paradigm reader with excitation 360 nm and emission 465 nm. Fluorescence measurements were performed with kinetic read every 5 minutes for 60 minutes at room temperature. As noted above, FAP cleaves Ala-Pro-AMC to release free AMC which is measured as a fluorescent signal.
The in vivo potency IC50 of each test compound was then estimated by relating the plasma exposure C of the compound to target engagement E in plasma using the following equation:
where E0 is the FAP baseline in plasma prior to dosing and Imax is the maximum effect of the compound. Data from each target engagement experiment were considered separately and therefore slightly different estimates of FAP baseline for each compound were obtained. […] The parameter estimation was done in Phoenix WinNonlin Certara build 8.1.0.3530 with the algorithm ‘Naïve pooled’ as parameter estimation method.

[4] = biological target: human dipeptidylpeptidase 9 (hDPP9) (Homo sapiens (Human), UniProt Q86TI2); assay: hDPP9 inhibition assay; type: biochemical; details: hDPP9 0.4 nM, Ala-Pro-amino-methylcoumarin 5 μM, n = 1
Method: Compounds were tested in a biochemical inhibition assay using human dipeptidylpeptidase 9 (hDPP9) enzyme at 0.4 nM FAC (BPS Bioscience, #80090) and the substrate Ala-Pro-amino-methylcoumarin (BPS Bioscience #80305) at 5 μM FAC. The enzymatic reactions were conducted in duplicate at rt for 30 min in 50 μL DPP assay buffer (BPS Bioscience, #80300). […] The plates were read on a Tecan Infinite M1000 microplate reader with excitation 340 nm and emission 460 nm. Data were analyzed in Graph Pad Prism. IC50 values were determined by plotting % inhibition versus log compound concentration and using a one site dose response model. Raw data signals were normalized using 1% DMSO as 0% control and no enzyme as 100% inhibitor control.

[5] = Metabolic stability in rat hepatocytes (rHep); details: n = 1 or geometric mean of n = 2-3
Kinetic solubility = details: kinetic from dmso stock, Solubility, kinetic solubility; n = 1 or average of n = 2-3
Method: Kinetic solubility was measured as described in Comput Aided Mol Des 2015, 29, 795.

[6] = Metabolic stability in human hepatocytes (hHep); type: in vitro ADME; details: n = 1 or geometric mean of n = 2
[7] = Metabolic stability in human liver microsomes (HLM); details: human, HLM CLint, n = 1 or average of n = 2-3
Method: Metabolic stability in HLM was measured as described in J Comput Aided Mol Des 2015, 29, 795.

Caco-2 cell permeability = details: human
Method: Caco-2 cell permeability was measured as described in Mol Pharm 2017, 14, 1601.

[8] = biological target: Prolyl endopeptidase, Prolyl Oligopeptidase (hPREP) (Homo sapiens (Human), UniProt P48147); assay: hPrep inhibition assay; type: biochemical; details: hPREP 0.6 nM, Z-Gly-Pro-amino-methylcoumarin 50 μM; read-out: PREP IC50
Procedure, shortened: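 Fluorogenic read-out (340 nm excitation, 460 nm emission) after 20 min at rt, using 50 μM final Z-Gly-Pro-aminomethylcoumarin and 0.6 nM final enzyme, following 15 min compound preincubation. Buffer pH 7.5 with glutathione and Triton X-100. IC50 via one-site model on % inhibition vs log concentration.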

hFAP (M39-A757) = hFAP (M39-A757) (Homo sapiens (Human), UniProt Q12884); assay: hFAP binding assay (surface plasmon resonance); details: SPR, 20° C.; for hFAP Binding assay k(off) / hFAP Binding assay k(on): single cycle kinetics; for Kd: n = 1 or geometric mean n = 2-4
[9] = biological target: human Fibroblast activation protein alpha (hFAP) (Homo sapiens (Human), UniProt Q12884); assay: hFAP inhibition assay (tight binders); type: biochemical; details: Ala-Pro-AMC 20 μM, n = 1 or geometric mean n = 2-6; note: hFAP 2.4 pM
Method: The plates were read on a PHERAstar® reader with excitation 340 nm and emission 460 nm. Data were analyzed in Genedata Screener®. IC50 values were determined by plotting % inhibition versus log compound concentration and using a one site dose response model.

FAP [10] = biological target: T1, FAP (Homo sapiens (Human), UniProt Q12884); assay: hFAP inhibition assay; type: biochemical; details: hFAP […], Ala-Pro-AMC 20 μM; n = 1 or geometric mean n = 2-3
Procedure, shortened: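 Compounds (10-point, 3-fold dilutions from 50 μM top) were preincubated 15 min at rt in the dark with 0.48 nM hFAP in pH 7.4 Tris/NaCl/Chaps buffer. Reaction was started with substrate (40 μM solution) and ran 30 min at rt. Read by fluorescence (340/460 nm); IC50 from one-site fit.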
Target sequence in this assay (Q12884 38-760): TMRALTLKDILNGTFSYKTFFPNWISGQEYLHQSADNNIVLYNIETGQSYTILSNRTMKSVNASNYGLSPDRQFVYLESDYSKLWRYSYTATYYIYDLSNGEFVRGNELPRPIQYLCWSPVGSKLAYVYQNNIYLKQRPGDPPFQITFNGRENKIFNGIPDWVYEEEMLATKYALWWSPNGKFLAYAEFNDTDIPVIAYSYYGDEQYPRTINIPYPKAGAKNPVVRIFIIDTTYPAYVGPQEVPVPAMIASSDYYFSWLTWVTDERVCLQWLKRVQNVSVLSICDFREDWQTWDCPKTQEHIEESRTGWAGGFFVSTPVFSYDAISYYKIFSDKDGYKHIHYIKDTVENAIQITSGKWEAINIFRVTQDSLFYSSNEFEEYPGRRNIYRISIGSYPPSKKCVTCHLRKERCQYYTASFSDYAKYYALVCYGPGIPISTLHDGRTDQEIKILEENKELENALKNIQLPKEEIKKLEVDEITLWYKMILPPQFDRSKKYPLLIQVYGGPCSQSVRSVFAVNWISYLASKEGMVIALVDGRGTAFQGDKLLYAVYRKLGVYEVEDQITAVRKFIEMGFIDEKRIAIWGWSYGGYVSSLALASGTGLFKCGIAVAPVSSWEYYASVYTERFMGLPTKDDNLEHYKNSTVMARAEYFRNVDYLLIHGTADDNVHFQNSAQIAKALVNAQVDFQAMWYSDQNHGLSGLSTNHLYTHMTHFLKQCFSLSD

FAP [11] = biological target: T1, FAP; assay: FAP plasma inhibition assay, human plasma; type: biochemical; details: human plasma diluted 1:40, Ala-Pro-AMC 75 μM
Method: This assay was adapted from the method described in Example 237 for detection of FAP target engagement enzyme activity in plasma. Plasma (anticoagulant K2EDTA) was used as the enzyme source: Human plasma (Pooled from AZ Biobank), Mouse plasma (AZ AST Biobank), and Cynomolgus plasma (BioIVT, #NHP00PLK2FNN, lot CYN222895). 384-Well black fluotrack PS plates (Greiner 781076) were used. 20 μL diluted plasma (Cynomolgus and Human plasma dilution 1:40, Mouse plasma dilution 1:67) in buffer (PBS, 0.1% BSA) was added to 0.6 μL compounds (in DMSO). Compounds were tested using 10 CR, 3 fold dilution series from 500 nM FAC. Two replicates for each assay point were run on the same plate. A fluorescence blank read was taken before substrate addition. […] Plates were incubated for 40 min at rt in the dark. […] IC50 values were determined by plotting % inhibition versus log compound concentration.
Target sequence in this assay (Q12884 24-760): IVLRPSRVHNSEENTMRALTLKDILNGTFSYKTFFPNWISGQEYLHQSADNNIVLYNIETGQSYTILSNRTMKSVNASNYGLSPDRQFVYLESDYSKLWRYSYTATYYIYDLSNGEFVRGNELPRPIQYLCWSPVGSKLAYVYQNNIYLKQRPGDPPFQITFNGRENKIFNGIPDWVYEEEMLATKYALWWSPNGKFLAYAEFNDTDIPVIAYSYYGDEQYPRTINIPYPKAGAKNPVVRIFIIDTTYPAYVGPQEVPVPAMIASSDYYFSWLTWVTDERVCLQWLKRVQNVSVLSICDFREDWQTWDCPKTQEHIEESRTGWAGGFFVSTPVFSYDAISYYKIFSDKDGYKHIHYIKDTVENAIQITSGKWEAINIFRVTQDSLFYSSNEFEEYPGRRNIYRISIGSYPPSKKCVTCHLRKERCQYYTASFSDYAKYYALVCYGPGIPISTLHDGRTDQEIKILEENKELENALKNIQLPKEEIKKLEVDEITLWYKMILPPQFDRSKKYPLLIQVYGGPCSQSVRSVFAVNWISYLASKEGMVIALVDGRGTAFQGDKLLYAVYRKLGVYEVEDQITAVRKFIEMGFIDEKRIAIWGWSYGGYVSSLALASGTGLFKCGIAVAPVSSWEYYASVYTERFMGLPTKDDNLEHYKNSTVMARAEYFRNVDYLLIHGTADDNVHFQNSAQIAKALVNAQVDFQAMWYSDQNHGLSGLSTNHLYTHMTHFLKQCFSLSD

Chain of FAP (Mus musculus (Mouse), UniProt P97321) (P97321 24-761): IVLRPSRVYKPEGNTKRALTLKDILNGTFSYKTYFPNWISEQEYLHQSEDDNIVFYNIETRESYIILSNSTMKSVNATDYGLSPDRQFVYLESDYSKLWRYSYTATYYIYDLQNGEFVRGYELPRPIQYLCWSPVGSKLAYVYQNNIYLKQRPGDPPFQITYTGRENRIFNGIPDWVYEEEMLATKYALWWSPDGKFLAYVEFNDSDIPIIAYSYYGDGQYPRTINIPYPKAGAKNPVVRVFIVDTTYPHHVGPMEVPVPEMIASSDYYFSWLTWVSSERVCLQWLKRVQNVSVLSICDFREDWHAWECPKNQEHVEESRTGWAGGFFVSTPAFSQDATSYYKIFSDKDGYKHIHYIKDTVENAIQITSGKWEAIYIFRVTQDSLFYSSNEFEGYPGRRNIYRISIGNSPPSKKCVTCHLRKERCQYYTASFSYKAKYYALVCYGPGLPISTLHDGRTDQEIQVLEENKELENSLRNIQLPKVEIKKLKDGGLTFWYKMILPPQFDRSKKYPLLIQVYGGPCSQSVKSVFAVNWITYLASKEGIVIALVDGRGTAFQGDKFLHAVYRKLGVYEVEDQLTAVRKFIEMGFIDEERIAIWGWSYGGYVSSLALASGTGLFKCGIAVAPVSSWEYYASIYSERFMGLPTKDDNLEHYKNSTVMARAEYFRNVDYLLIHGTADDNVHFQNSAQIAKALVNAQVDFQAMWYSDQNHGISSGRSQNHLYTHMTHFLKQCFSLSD
Chain of Fibroblast Activation Protein alpha (FAP) (P97321 24-761): as above
Chain of Prolyl endopeptidase, Prolyl Oligopeptidase (hPREP) (P48147 whole entry): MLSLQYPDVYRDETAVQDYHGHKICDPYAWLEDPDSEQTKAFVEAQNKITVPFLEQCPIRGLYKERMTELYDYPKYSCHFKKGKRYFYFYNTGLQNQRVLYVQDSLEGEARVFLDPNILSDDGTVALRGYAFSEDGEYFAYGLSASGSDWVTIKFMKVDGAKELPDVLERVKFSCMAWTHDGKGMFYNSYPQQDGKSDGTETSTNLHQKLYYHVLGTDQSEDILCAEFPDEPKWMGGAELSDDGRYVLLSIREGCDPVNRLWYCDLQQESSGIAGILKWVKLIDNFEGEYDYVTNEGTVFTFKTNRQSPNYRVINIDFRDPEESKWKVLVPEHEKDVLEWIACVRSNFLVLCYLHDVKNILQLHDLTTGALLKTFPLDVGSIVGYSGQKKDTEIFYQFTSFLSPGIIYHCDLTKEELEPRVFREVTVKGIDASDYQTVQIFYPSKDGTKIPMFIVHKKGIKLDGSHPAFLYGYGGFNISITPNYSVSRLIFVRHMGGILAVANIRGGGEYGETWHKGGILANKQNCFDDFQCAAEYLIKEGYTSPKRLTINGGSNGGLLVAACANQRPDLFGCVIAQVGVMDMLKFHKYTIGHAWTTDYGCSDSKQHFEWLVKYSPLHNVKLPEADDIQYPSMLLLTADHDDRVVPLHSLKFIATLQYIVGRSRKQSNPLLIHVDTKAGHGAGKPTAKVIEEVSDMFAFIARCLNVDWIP
Chain of human dipeptidylpeptidase 9 (hDPP9) (Q86TI2 whole entry): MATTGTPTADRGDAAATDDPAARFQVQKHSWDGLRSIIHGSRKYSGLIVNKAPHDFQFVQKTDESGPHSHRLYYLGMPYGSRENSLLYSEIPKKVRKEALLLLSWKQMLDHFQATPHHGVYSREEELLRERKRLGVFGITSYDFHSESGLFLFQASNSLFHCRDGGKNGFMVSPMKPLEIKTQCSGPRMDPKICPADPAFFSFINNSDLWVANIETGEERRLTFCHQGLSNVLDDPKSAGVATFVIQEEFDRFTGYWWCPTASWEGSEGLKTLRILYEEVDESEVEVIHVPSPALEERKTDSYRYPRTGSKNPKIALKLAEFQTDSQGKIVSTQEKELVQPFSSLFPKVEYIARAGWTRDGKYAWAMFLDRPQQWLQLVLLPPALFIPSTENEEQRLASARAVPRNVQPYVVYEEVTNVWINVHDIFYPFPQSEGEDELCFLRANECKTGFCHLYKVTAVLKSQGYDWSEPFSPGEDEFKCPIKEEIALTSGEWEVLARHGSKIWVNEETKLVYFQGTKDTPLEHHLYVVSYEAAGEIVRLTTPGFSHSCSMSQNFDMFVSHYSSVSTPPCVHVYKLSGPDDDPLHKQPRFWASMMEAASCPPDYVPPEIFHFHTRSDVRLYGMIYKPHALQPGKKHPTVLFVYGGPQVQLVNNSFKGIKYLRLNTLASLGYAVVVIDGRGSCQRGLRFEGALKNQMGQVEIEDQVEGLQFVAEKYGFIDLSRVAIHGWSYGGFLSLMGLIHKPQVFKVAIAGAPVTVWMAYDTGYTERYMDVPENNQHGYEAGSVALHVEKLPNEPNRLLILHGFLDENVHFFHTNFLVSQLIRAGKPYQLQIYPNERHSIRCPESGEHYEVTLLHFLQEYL
Chain of hFAP (M39-A757) (Q12884 39-757): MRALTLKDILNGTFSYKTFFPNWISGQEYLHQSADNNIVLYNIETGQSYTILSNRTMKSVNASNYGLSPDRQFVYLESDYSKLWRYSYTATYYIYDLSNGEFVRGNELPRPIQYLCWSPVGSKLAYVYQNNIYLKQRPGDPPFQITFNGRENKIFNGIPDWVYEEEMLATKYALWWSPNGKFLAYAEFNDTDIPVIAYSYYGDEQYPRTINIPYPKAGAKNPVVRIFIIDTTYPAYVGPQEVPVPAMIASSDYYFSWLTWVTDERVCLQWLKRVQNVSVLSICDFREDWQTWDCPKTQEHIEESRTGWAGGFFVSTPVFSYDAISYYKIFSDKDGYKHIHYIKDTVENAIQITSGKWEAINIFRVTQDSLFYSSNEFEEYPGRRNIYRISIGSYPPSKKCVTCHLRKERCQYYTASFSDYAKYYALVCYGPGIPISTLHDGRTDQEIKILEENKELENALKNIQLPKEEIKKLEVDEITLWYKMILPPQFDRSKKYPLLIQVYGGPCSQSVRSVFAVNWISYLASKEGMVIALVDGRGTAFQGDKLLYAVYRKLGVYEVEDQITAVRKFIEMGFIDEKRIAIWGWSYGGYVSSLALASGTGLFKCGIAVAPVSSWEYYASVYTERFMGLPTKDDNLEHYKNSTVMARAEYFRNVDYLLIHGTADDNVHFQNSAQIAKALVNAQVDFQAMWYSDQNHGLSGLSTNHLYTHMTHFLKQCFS
Chain of human Fibroblast activation protein alpha (hFAP) (Q12884 38-760): as the sequence (Q12884 38-760) above

SMILES | IC50 (FAP [1]) | IC50 [2] | IC50 [3] | IC50 [8] | hFAP Binding assay k(off) (hFAP (M39-A757)) | hFAP Binding assay k(on) (hFAP (M39-A757)) | also measured
COC1CCN(c2ccc3nccc(C(=O)NCC(=O)N4CSC[C@H]4C#N)c3c2)CC1 [Example 8, (R)—N-(2-(4-Cyanothiazolidin-3-yl)-2-oxoethyl)-6-(4-methoxypiperidin-1-yl)quinoline-4-carboxamide] | 0.2 nM | > 100000 nM |  |  |  |  | 
CC1(CF)CN(c2ccc3nccc(C(=O)NCC(=O)N4CSC[C@H]4C#N)c3c2)C1 [Example 27, (R)—N-(2-(4-Cyanothiazolidin-3-yl)-2-oxoethyl)-6-(3-(fluoromethyl)-3-methylazetidin-1-yl)quinoline-4-carboxamide] | 0.5 nM | > 100000 nM | 1.4 nM |  |  |  | 
N#C[C@@H]1CSCN1C(=O)CNC(=O)c1ccnc2ccc(N3CCOCC3)cc12 [Example 67, (R)—N-(2-(4-Cyanothiazolidin-3-yl)-2-oxoethyl)-6-morpholinoquinoline-4-carboxamide] | 0.52 nM | 33000 nM | 0.18 nM |  |  |  | 
N#C[C@@H]1CSCN1C(=O)CNC(=O)c1ccnc2ccc(N3CCO[C@@H](CF)C3)cc12 [Example 69, N-(2-((R)-4-Cyanothiazolidin-3-yl)-2-oxoethyl)-6-((R)-2-(fluoromethyl)morpholino)-quinoline-4-carboxamide] |  | > 100000 nM | 2.1 nM |  |  |  | IC50 [4]: 950 nM
N#C[C@@H]1CSCN1C(=O)CNC(=O)c1ccnc2ccc(N3CCO[C@H](CF)C3)cc12 [Example 71, N-(2-((R)-4-Cyanothiazolidin-3-yl)-2-oxoethyl)-6-((S)-2-(fluoromethyl)morpholino)-quinoline-4-carboxamide] | 0.2 nM | > 100000 nM | 2.8 nM |  |  |  | IC50 [4]: 1900 nM
C[C@H]1CN(c2ccc3nccc(C(=O)NCC(=O)N4CSC[C@H]4C#N)c3c2)CCO1 [Example 80, N-(2-((R)-4-Cyanothiazolidin-3-yl)-2-oxoethyl)-6-((S)-2-methylmorpholino)-quinoline-4-carboxamide] |  | > 100000 nM | 9 nM |  |  |  | rHep CLint [5]: 2 μL/min/1E6; solubility (Kinetic solubility): 980 µM (≈ 417 µg/mL); hHep CLint [6]: <1 μL/min/1E6; microsomal CLint [7]: 7.5 µL/min/mg; Papp A→B (Caco-2 cell permeability): 0.81 ×10⁻⁶ cm/s; Papp B→A (Caco-2 cell permeability): 25 ×10⁻⁶ cm/s; IC50 [4]: 1400 nM
N#C[C@@H]1CSCN1C(=O)CNC(=O)c1ccnc2ccc(N3CC(CF)C3)cc12 [Example 113, (R)—N-(2-(4-Cyanothiazolidin-3-yl)-2-oxoethyl)-6-(3-(fluoromethyl)azetidin-1-yl)quinoline-4-carboxamide] | 0.5 nM |  | 2 nM | 490 nM | 0.000045 s⁻¹ | 1500000 M⁻¹ s⁻¹ | rHep CLint [5]: 11 μL/min/1E6; solubility (Kinetic solubility): 71 µM (≈ 29.4 µg/mL); Kd (hFAP (M39-A757)): 0.031 nM; hHep CLint [6]: <1.5 μL/min/1E6; IC50 [9]: 0.12 nM; IC50 (FAP [10]): 0.25 nM; microsomal CLint [7]: < 3 µL/min/mg; Papp (Caco-2 cell permeability): 20 ×10⁻⁶ cm/s; Papp A→B (Caco-2 cell permeability): 1.9 ×10⁻⁶ cm/s; Papp B→A (Caco-2 cell permeability): 23 ×10⁻⁶ cm/s; efflux ratio (Caco-2 cell permeability): 12; IC50 (FAP [11]): 0.2 nM
COC1(C)CN(c2ccc3nccc(C(=O)NCC(=O)N4CSC[C@H]4C#N)c3c2)C1 [Example 151, (R)—N-(2-(4-Cyanothiazolidin-3-yl)-2-oxoethyl)-6-(3-methoxy-3-methylazetidin-1-yl)quinoline-4-carboxamide] | 0.4 nM | > 100000 nM | 3.3 nM |  |  |  | 
N#C[C@@H]1CSCN1C(=O)CNC(=O)c1ccnc2ccc(N3CC4(C3)OCCO4)cc12 [Example 163, (R)—N-(2-(4-Cyanothiazolidin-3-yl)-2-oxoethyl)-6-(5,8-dioxa-2-azaspiro[3.4]octan-2-yl)quinoline-4-carboxamide] | 0.2 nM | > 100000 nM | 3 nM |  |  |  | 
N#C[C@@H]1CSCN1C(=O)CNC(=O)c1ccnc2ccc(-c3ccc(C(F)F)nc3)cc12 [Example 169, (R)—N-(2-(4-cyanothiazolidin-3-yl)-2-oxoethyl)-6-(6-(difluoromethyl)pyridin-3-yl)quinoline-4-carboxamide] |  |  | 1.4 nM | 440 nM | 0.00096 s⁻¹ | 6200000 M⁻¹ s⁻¹ | rHep CLint [5]: 8.8 μL/min/1E6; solubility (Kinetic solubility): 26 µM (≈ 11.8 µg/mL); Kd (hFAP (M39-A757)): 0.16 nM; IC50 [9]: 0.057 nM; IC50 (FAP [10]): 0.22 nM; microsomal CLint [7]: 18 µL/min/mg
N#C[C@@H]1CSCN1C(=O)CNC(=O)c1ccnc2ccc(-c3cnn(C4CC4)c3)cc12 [Example 170, (R)—N-(2-(4-Cyanothiazolidin-3-yl)-2-oxoethyl)-6-(1-cyclopropyl-1H-pyrazol-4-yl)quinoline-4-carboxamide] | 0.5 nM |  | 8.7 nM | 260 nM | 0.00018 s⁻¹ | 10000000 M⁻¹ s⁻¹ | 
Cc1nn(C)cc1-c1ccc2nccc(C(=O)NCC(=O)N3CSC[C@H]3C#N)c2c1 [Example 171, (R)—N-(2-(4-Cyanothiazolidin-3-yl)-2-oxoethyl)-6-(1,3-dimethyl-1H-pyrazol-4-yl)quinoline-4-carboxamide] | 0.3 nM | > 100000 nM | 2.5 nM |  |  |  | 
N#C[C@@H]1CSCN1C(=O)CNC(=O)c1ccnc2ccc(N3CCC(F)CC3)cc12 [Example 205, (R)—N-(2-(4-Cyanothiazolidin-3-yl)-2-oxoethyl)-6-(4-fluoropiperidin-1-yl)quinoline-4-carboxamide] | 0.3 nM |  | 1.2 nM | 640 nM | 0.000046 s⁻¹ | 2100000 M⁻¹ s⁻¹ | 
